# Results taken from patent US10106556B2, “Heterocyclic compound” (TAKEDA PHARMACEUTICAL COMPANY LIMITED, priority 2015, dated 2018).
# Biological target: T1, His-hMAGL (recombinant polyhistidine tagged human MAGL protein) (Homo sapiens, UniProt Q99685)
# T1 construct: made in house; host or cells: E. coli BL21(DE3)
# T1 sequence (Q99685 1-303): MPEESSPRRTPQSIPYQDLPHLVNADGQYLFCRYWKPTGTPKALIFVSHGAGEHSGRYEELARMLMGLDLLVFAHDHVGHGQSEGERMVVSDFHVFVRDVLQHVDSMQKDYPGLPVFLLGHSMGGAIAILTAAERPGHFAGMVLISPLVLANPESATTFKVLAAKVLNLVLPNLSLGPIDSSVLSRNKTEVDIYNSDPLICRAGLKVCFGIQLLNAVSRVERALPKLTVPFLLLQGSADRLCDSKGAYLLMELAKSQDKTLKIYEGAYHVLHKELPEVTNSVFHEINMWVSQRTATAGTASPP
# Assay: Measurement of MAGL inhibitory activity (arachidonic acid production from 2-arachidonylglycerol, RapidFire-mass spectrometry)
# Type: biochemical
# Conditions: MAGL inhibitory rate at 10 μM test compound; 60 min preincubation with His-hMAGL, 2-arachidonylglycerol substrate, 10 min reaction at room temperature
# Method: Furthermore, acetonitrile (50 μL) containing 3 μM arachidonic acid-d8 (Cayman Chemical Company) was added and the mixture was stirred.
# The amount of arachidonic acid in the obtained enzyme reaction mixture was calculated by measuring by RapidFire-mass spectrometry and correcting by the amount of arachidonic acid-d8. High Throughput online solid phase extraction was performed using RapidFire 300™ system (Agilent Technologies, Inc.). Samples were loaded on SPE C4 cartridge (Agilent Technologies, Inc.) and desalted with 0.2 (v/v) % acetic acid (Wako Pure Chemical Industries, Ltd.) in ultrapure water/acetonitrile (70/30, v/v) at a flow rate of 1.5 mL/min, eluted at a flow rate of 0.5 mL/min with 0.2 (v/v) % acetic acid dissolved in acetonitrile/ultrapure water (90/10, v/v), and injected into the mass spectrometry part. The injection needle was washed with ultrapure water (500 millisecond) and acetonitrile (500 millisecond) to minimize carry-over. […] The RapidFire300 system was controlled by RapidFire UI software version 3.6 (Agilent Technologies, Inc.).
# The mass spectrometry of the resultant product was performed using API4000™ triple quadrupole mass spectrometer (AB SCIEX) equipped with an electrospray ion sauce (TurboIon Spray™) in a negative selected reaction monitoring (SRM) mode. The conditions of SRM are shown below. The parameters of the instrument were optimized as follows: capillary temperature 600° C., ion spray voltage −4.5 kV, collision gas 8, curtain gas 15 psi, ion source gas 1 60 psi, ion source gas 2 60 psi. The mass spectrometer was controlled by Analyst™ software version 1.5.1 (AB SCIEX). The peak area integration was analyzed using RapidFire integrator software version 3.6 (Agilent Technologies, Inc.).
# MAGL inhibitory rate (%) was calculated according to the following calculation formula. (1−(arachidonic acid production amount of test compound addition group−arachidonic acid production amount of enzyme−free group)÷(arachidonic acid production amount of test compound-free group−arachidonic acid production amount of enzyme-free group))×100
row,inhibition at 10 µM,Compound
1,96%,"O=C1COc2ccc(C(=O)N3CCC(COc4ccccc4C4CC4)CC3)cc2N1 [Example 65, 6-((4-((2-cyclopropylphenoxy)methyl)piperidin-1-yl)carbonyl)-2H-1,4-benzoxazin-3(4H)-one]"
2,98%,"Cc1ccc(OCC2CCN(C(=O)c3ccc4c(c3)NC(=O)CO4)CC2)c(C)c1 [Example 35, 6-((4-((2,4-dimethylphenoxy)methyl)piperidin-1-yl)carbonyl)-2H-1,4-benzoxazin-3(4H)-one]"
3,101%,"O=C1COc2ccc(C(=O)N3CCC(COc4cccc5[nH]ncc45)CC3)cc2N1 [Example 64, 6-((4-((1H-indazol-4-yloxy)methyl)piperidin-1-yl)carbonyl)-2H-1,4-benzoxazin-3(4H)-one]"
4,97%,"O=C1COc2ccc(C(=O)N3CCC(COc4ccccc4F)CC3)cc2N1 [Example 94, 6-((4-((2-fluorophenoxy)methyl)piperidin-1-yl)carbonyl)-2H-1,4-benzoxazin-3(4H)-one]"
5,100%,"O=C1COc2cc(F)c(C(=O)N3CC(OCc4ccc(Cl)cc4F)C3)cc2N1 [Example 349, 6-((3-((4-chloro-2-fluorobenzyl)oxy)azetidin-1-yl)carbonyl)-7-fluoro-2H-1,4-benzoxazin-3(4H)-one]"
6,101%,"O=C1COc2cc(F)c(C(=O)N3CC(COc4ccc(Cl)cc4-c4cncc(Cl)c4)C3)cc2N1 [Example 201, 6-((3-((4-chloro-2-(5-chloropyridin-3-yl)phenoxy)methyl)azetidin-1-yl)carbonyl)-7-fluoro-2H-1,4-benzoxazin-3(4H)-one]"
7,97%,"Cc1ccc(-c2ccc(OCC3CN(C(=O)c4cc5c(cc4F)OCC(=O)N5)C3)c(F)c2)cn1 [Example 263, 7-fluoro-6-((3-((2-fluoro-4-(6-methylpyridin-3-yl)phenoxy)methyl)azetidin-1-yl)carbonyl)-2H-1,4-benzoxazin-3(4H)-one]"
8,100%,O=C1COc2cc(F)c(C(=O)N3CC(OCc4cccc(OC(F)F)c4)C3)cc2N1 [Example 340]
9,101%,"O=C1COc2cc(F)c(C(=O)N3CC(COc4ccccc4Cl)C3)cc2N1 [Example 113, 6-((3-((2-chlorophenoxy)methyl)azetidin-1-yl)carbonyl)-7-fluoro-2H-1,4-benzoxazin-3(4H)-one]"
10,105%,"O=C1COc2cc(F)c(C(=O)N3CC(COc4ccc(F)cc4Cl)C3)cc2N1 [Example 77, 6-((3-((2-chloro-4-fluorophenoxy)methyl)azetidin-1-yl)carbonyl)-7-fluoro-2H-1,4-benzoxazin-3(4H)-one]"
11,102%,"O=C1COc2cc(F)c(C(=O)N3CC(CC(F)(F)c4ccc(F)cc4Cl)C3)cc2N1 [Example 356, 6-((3-(2-(2-chloro-4-fluorophenyl)-2,2-difluoroethyl)azetidin-1-yl)carbonyl)-7-fluoro-2H-1,4-benzoxazin-3(4H)-one]"
12,95%,"O=C1COc2cc(F)c(C(=O)N3CC(COCc4ccccc4)C3)cc2N1 [Example 271, 6-((3-((benzyloxy)methyl)azetidin-1-yl)carbonyl)-7-fluoro-2H-1,4-benzoxazin-3(4H)-one]"
13,100%,"Cn1cc(-c2cc(Cl)ccc2OCC2CN(C(=O)c3cc4c(cc3F)OCC(=O)N4)C2)cn1 [Example 213, 6-((3-((4-chloro-2-(1-methyl-1H-pyrazol-4-yl)phenoxy)methyl)azetidin-1-yl)carbonyl)-7-fluoro-2H-1,4-benzoxazin-3(4H)-one]"
14,98%,"O=C1COc2cc(F)c(C(=O)N3CC(COc4ccc5c(c4Br)CCCC5)C3)cc2N1 [Example 286, 6-((3-(((1-bromo,-5,6,7,8-tetrahydronaphthalen-2-yl)oxy)methyl)azetidin-1-yl)carbonyl)-7-fluoro-2H-1,4-benzoxazin-3(4H)-one]"
15,101%,"Cc1cc(Cl)ccc1OCC1CCN(C(=O)c2ccc3c(c2)NC(=O)CO3)CC1 [Example 37, 6-((4-((4-chloro-2-methylphenoxy)methyl)piperidin-1-yl)carbonyl)-2H-1,4-benzoxazin-3(4H)-one]"
16,98%,"Cc1nc2c(OCC3CCN(C(=O)c4cc5c(cc4F)OCC(=O)N5)CC3)cccc2s1 [Example 187, 7-fluoro-6-((4-(((2-methyl-1,3-benzothiazol-4-yl)oxy)methyl)piperidin-1-yl)carbonyl)-2H-1,4-benzoxazin-3(4H)-one]"
17,99%,"O=C1COc2cc(F)c(C(=O)N3CC(COc4ccc(OCC(F)(F)F)cc4)C3)cc2N1 [Example 114, 7-fluoro-6-((3-((4-(2,2,2-trifluoroethoxy)phenoxy)methyl)azetidin-1-yl)carbonyl)-2H-1,4-benzoxazin-3(4H)-one]"
18,103%,"O=C1COc2cc(F)c(C(=O)N3CC(COc4ccc(Cl)cc4-c4ccc(Cl)nc4)C3)cc2N1 [Example 205, 6-((3-((4-chloro-2-(6-chloropyridin-3-yl)phenoxy)methyl)azetidin-1-yl)carbonyl)-7-fluoro-2H-1,4-benzoxazin-3(4H)-one]"
19,101%,"Cn1cccc1-c1cc(Cl)ccc1OCC1CN(C(=O)c2cc3c(cc2F)OCC(=O)N3)C1 [Example 219, 6-((3-((4-chloro-2-(1-methyl-1H-pyrrol-2-yl)phenoxy)methyl)azetidin-1-yl)carbonyl)-7-fluoro-2H-1,4-benzoxazin-3(4H)-one]"
20,102%,"N#Cc1ccc(OCC2CCN(C(=O)c3ccc4c(c3)NC(=O)CO4)CC2)c(Cl)c1 [Example 52, 3-chloro-4-((1-((3-oxo-3,4-dihydro-2H-1,4-benzoxazin-6-yl)carbonyl)piperidin-4-yl)methoxy)benzonitrile]"
21,98%,"O=C1COc2cc(Cl)c(C(=O)N3CCC(COc4ccc(F)cc4Cl)CC3)cc2N1 [Example 86, 7-chloro-6-((4-((2-chloro-4-fluorophenoxy)methyl)piperidin-1-yl)carbonyl)-2H-1,4-benzoxazin-3(4H)-one]"
22,86%,"O=C1COc2cc(F)c(C(=O)N3CCC(COC4CCOCC4)CC3)cc2N1 [Example 83, 7-fluoro-6-((4-((tetrahydro-2H-pyran-4-yloxy)methyl)piperidin-1-yl)carbonyl)-2H-1,4-benzoxazin-3(4H)-one]"
23,100%,O=C1Cc2ccc(C(=O)N3CCC(COc4ccccc4Cl)CC3)cc2N1 [Example 28]
24,100%,"O=C1COc2cc(F)c(C(=O)N3CC(COc4ccc(OC(F)(F)F)cc4)C3)cc2N1 [Example 143, 7-fluoro-6-((3-((4-(trifluoromethoxy)phenoxy)methyl)azetidin-1-yl)carbonyl)-2H-1,4-benzoxazin-3(4H)-one]"
25,94%,"O=C1COc2ccc(C(=O)N3CCC(COc4ccc5[nH]ncc5c4)CC3)cc2N1 [Example 61, 6-((4-((1H-indazol-5-yloxy)methyl)piperidin-1-yl)carbonyl)-2H-1,4-benzoxazin-3(4H)-one]"
26,100%,"Cc1cc(OCC2CN(C(=O)c3cc4c(cc3F)OCC(=O)N4)C2)ccc1F [Example 287, 7-fluoro-6-((3-((4-fluoro-3-methylphenoxy)methyl)azetidin-1-yl)carbonyl)-2H-1,4-benzoxazin-3(4H)-one]"
27,99%,"O=C1COc2cc(F)c(C(=O)N3CC(COc4ccc(Cl)cc4-c4cnn(C5CC5)c4)C3)cc2N1 [Example 215, 6-((3-((4-chloro-2-(1-cyclopropyl-1H-pyrazol-4-yl)phenoxy)methyl)azetidin-1-yl)carbonyl)-7-fluoro-2H-1,4-benzoxazin-3(4H)-one]"
28,104%,"O=C1COc2cc(F)c(C(=O)N3CC(COc4ccc5ncccc5c4)C3)cc2N1 [Example 170, 7-fluoro-6-((3-((quinolin-6-yloxy)methyl)azetidin-1-yl)carbonyl)-2H-1,4-benzoxazin-3(4H)-one]"
29,94%,"Cc1cc(OCC2CN(C(=O)c3cc4c(cc3F)OCC(=O)N4)C2)n(-c2ccccn2)n1 [Example 178, 7-fluoro-6-((3-(((3-methyl-1-(pyridin-2-yl)-1H-pyrazol-5-yl)oxy)methyl)azetidin-1-yl)carbonyl)-2H-1,4-benzoxazin-3(4H)-one]"
30,99%,"O=C1COc2ccc(C(=O)N3CC(OCc4ccc(F)cc4Cl)C3)cc2N1 [Example 323, 6-((3-((2-chloro-4-fluorobenzyl)oxy)azetidin-1-yl)carbonyl)-2H-1,4-benzoxazin-3(4H)-one]"
